# Assay results: publication PMC3524758, “Development and evaluation of a novel radioiodinated vesamicol analog as a sigma receptor imaging agent” (EJNMMI Research, 2012)
# Where two headings read alike, the source gives them in different places.
# Tests used:
# sigma-2 receptor = molecular target: T1, sigma-2 receptor (Rattus norvegicus, UniProt Q5U3Y7); assay: Sigma-2 receptor competitive binding assay ([3H]DTG, rat liver membranes, (+)-pentazocine mask)
# T1 construct: from tissue; host or cells: rat liver (male Sprague-Dawley rats)
# T1 sequence (Q5U3Y7 1-176): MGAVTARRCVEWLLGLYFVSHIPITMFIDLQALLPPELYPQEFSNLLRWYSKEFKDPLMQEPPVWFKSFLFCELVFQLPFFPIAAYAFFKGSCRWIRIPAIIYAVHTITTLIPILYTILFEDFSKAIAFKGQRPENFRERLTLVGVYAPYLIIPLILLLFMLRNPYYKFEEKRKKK
# Procedure: (§1) Animal experimental protocols were approved by the Committee on Animal Experimentation of Kanazawa University. Experiments with animals were conducted in accordance with the Guidelines for the Care and Use of Laboratory Animals of Kanazawa University. The animals were housed with free access to food and water at 23°C with a 12-h alternating light/dark schedule. The rat brain and liver membranes for binding experiments were prepared from rat brains without cerebellum and rat liver in male Sprague–Dawley rats (200 g, Japan SLC, Inc., Hamamatsu, Japan), respectively, using a method described previously.
# A sigma-2 receptor binding assay was performed using the following method. […] The incubated samples were treated in the same manner as described for the sigma-1 receptor binding assays.
# sigma-1 receptor = molecular target: T2, sigma-1 receptor (Rattus norvegicus, UniProt Q9R0C9); assay: Sigma-1 receptor competitive binding assay ((+)-[3H]pentazocine, rat cerebral membranes)
# T2 construct: from tissue; host or cells: rat brain without cerebellum (male Sprague-Dawley rats)
# Procedure: as §1
# A sigma-1 receptor binding assay was performed using the following method. […] The incubated samples were quickly diluted with 5 mL of ice-cold Tris–HCl (pH 7.8) buffer followed by rapid filtration through Whatman Grade GF/B glass fiber filters (GE Healthcare UK Ltd., Amersham, UK) presoaked in 0.5% polyethylenimine using a cell harvester (Brandel, Gaithersburg, MD, USA). Filters were washed three times with 5 mL of ice-cold buffer. […] Radioactivity retained on the filters was measured with a liquid scintillation counter (LSC-5100; Aloka, Tokyo, Japan).
# [1] = Biodistribution in DU-145 tumor-bearing mice; type: in vivo; conditions: i.v., mean (SD)
# Procedure: (+)-^131I]pIV was prepared using a method described previously. To produce tumors, approximately 5 × 10^6 of the prepared DU-145 cells was injected subcutaneously into the right dorsum of 4-week-old male BALB/c nude mice (15 to 19 g, Japan SLC, Inc.). Biodistribution experiments were performed at approximately 14- to 21-day post-inoculation, i.e., when tumors reached a palpable size. Groups of four mice were intravenously administered with 100 μL of a mixed solution of (+)-^125I]IV-OH (37 kBq) and (+)-^131I]pIV (37 kBq). At 10-min, 1-, 3-, and 24-h post-injections, the mice were killed. Tissues of interest were removed and weighed, and radioactivity counts were determined with an auto well gamma counter and corrected for background radiation. A window from 16 to 71 keV was used for measuring ^125I and one from 300 to 433 keV for ^131I. The crossover of ^125I activity into the ^131I channel was negligible. Correlation factors to eliminate any crossover of ^131I activity into ^125I were determined by measuring the ^131I standard in both windows.
# sigma receptors = assay: Blocking studies with excess sigma ligand in DU-145 tumor-bearing mice; type: in vivo; conditions: 10 μmol/kg i.v. co-injection, 1-h post-injection
# Procedure: At 1-h post-injection, the mice were killed, and biodistribution experiments were conducted as described above.
# [2] = rat liver membranes, 5-nM [3H]DTG, 1-μM (+)-pentazocine mask, Ki from IC50, means (SEM) of three or four experiments
# [3] = rat cerebral membranes, 5-nM (+)-[3H]pentazocine, Ki from IC50, means (SEM) of three or four experiments
# T2 sequence (Q9R0C9 whole entry): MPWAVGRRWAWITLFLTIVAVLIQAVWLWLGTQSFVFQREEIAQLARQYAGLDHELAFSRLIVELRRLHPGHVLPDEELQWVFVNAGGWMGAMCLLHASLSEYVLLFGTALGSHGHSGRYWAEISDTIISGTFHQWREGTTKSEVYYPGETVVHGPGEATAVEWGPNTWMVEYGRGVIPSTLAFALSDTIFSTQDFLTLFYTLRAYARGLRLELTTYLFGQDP
molecule,measurement,setting,value
"Oc1ccc(C2CCN(C3CCCC[C@H]3O)CC2)cc1I (single isomer, unassigned; (+)) [(+)-IV-OH, (+)-4-[1-(2-hydroxycyclohexyl)piperidine-4-yl]-2-iodophenol]",Ki,sigma-2 receptor,147 nM
same,Ki,sigma-1 receptor,22.8 nM
same,selectivity for sigma-1 subtype over sigma-2,sigma-1 receptor; in vitro binding assay,approximately 6.4 fold
"Oc1ccc(C2CCN(C3CCCCC3O)CC2)cc1 (single isomer, unassigned; (+)) [(+)-Ves-OH]",Ki,sigma-2 receptor; [2],97.2 nM
same,Ki,sigma-1 receptor; [3],179 nM
"OC1CCCCC1N1CCC(c2ccc([131I])cc2)CC1 (single isomer, unassigned; (+)) [(+)-[^131I]pIV, reference compound]","Biodistribution of radioactivity, Blood",[1]; 10 min post-injection,0.45 (0.03) percent injected dose per gram tissue
same,"Biodistribution of radioactivity, Blood",[1]; 1 h post-injection,0.28 (0.02) percent injected dose per gram tissue
same,"Biodistribution of radioactivity, Blood",[1]; 3 h post-injection,0.17 (0.01) percent injected dose per gram tissue
same,"Biodistribution of radioactivity, Brain",[1]; 10 min post-injection,6.02 (0.74) percent injected dose per gram tissue
same,"Biodistribution of radioactivity, Brain",[1]; 1 h post-injection,6.47 (0.73) percent injected dose per gram tissue
same,"Biodistribution of radioactivity, Brain",[1]; 3 h post-injection,4.12 (0.30) percent injected dose per gram tissue
same,"Biodistribution of radioactivity, Brain",[1]; 24 h post-injection,2.22 (0.10) percent injected dose per gram tissue
same,"Biodistribution of radioactivity, Heart",[1]; 10 min post-injection,8.66 (0.81) percent injected dose per gram tissue
same,"Biodistribution of radioactivity, Heart",[1]; 1 h post-injection,5.55 (0.70) percent injected dose per gram tissue
same,"Biodistribution of radioactivity, Heart",[1]; 3 h post-injection,2.11 (0.37) percent injected dose per gram tissue
same,"Biodistribution of radioactivity, Heart",[1]; 24 h post-injection,0.96 (0.07) percent injected dose per gram tissue
same,"Biodistribution of radioactivity, Intestine",[1]; 10 min post-injection,4.31 (0.78) percent injected dose per gram tissue
same,"Biodistribution of radioactivity, Intestine",[1]; 1 h post-injection,5.14 (0.12) percent injected dose per gram tissue
same,"Biodistribution of radioactivity, Intestine",[1]; 3 h post-injection,3.20 (0.13) percent injected dose per gram tissue
same,"Biodistribution of radioactivity, Intestine",[1]; 24 h post-injection,2.59 (0.24) percent injected dose per gram tissue
same,"Biodistribution of radioactivity, Kidney",[1]; 10 min post-injection,18.47 (1.59) percent injected dose per gram tissue
same,"Biodistribution of radioactivity, Kidney",[1]; 1 h post-injection,11.72 (1.90) percent injected dose per gram tissue
same,"Biodistribution of radioactivity, Kidney",[1]; 3 h post-injection,7.37 (0.89) percent injected dose per gram tissue
same,"Biodistribution of radioactivity, Kidney",[1]; 24 h post-injection,6.15 (0.30) percent injected dose per gram tissue
same,"Biodistribution of radioactivity, Liver",[1]; 10 min post-injection,9.83 (0.39) percent injected dose per gram tissue
same,"Biodistribution of radioactivity, Liver",[1]; 1 h post-injection,13.31 (1.25) percent injected dose per gram tissue
same,"Biodistribution of radioactivity, Liver",[1]; 3 h post-injection,13.05 (0.46) percent injected dose per gram tissue
same,"Biodistribution of radioactivity, Liver",[1]; 24 h post-injection,10.28 (0.59) percent injected dose per gram tissue
same,"Biodistribution of radioactivity, Lung",[1]; 10 min post-injection,26.10 (3.39) percent injected dose per gram tissue
same,"Biodistribution of radioactivity, Lung",[1]; 1 h post-injection,13.13 (3.28) percent injected dose per gram tissue
same,"Biodistribution of radioactivity, Lung",[1]; 3 h post-injection,6.59 (0.56) percent injected dose per gram tissue
same,"Biodistribution of radioactivity, Lung",[1]; 24 h post-injection,3.01 (0.46) percent injected dose per gram tissue
same,"Biodistribution of radioactivity, Muscle",[1]; 10 min post-injection,2.03 (0.53) percent injected dose per gram tissue
same,"Biodistribution of radioactivity, Muscle",[1]; 1 h post-injection,1.62 (0.22) percent injected dose per gram tissue
same,"Biodistribution of radioactivity, Muscle",[1]; 3 h post-injection,0.72 (0.29) percent injected dose per gram tissue
same,"Biodistribution of radioactivity, Muscle",[1]; 24 h post-injection,0.42 (0.03) percent injected dose per gram tissue
same,"Biodistribution of radioactivity, Pancreas",[1]; 10 min post-injection,16.58 (1.82) percent injected dose per gram tissue
same,"Biodistribution of radioactivity, Pancreas",[1]; 1 h post-injection,21.94 (2.50) percent injected dose per gram tissue
same,"Biodistribution of radioactivity, Pancreas",[1]; 3 h post-injection,27.35 (0.24) percent injected dose per gram tissue
same,"Biodistribution of radioactivity, Pancreas",[1]; 24 h post-injection,27.36 (0.70) percent injected dose per gram tissue
same,"Biodistribution of radioactivity, Spleen",[1]; 10 min post-injection,8.12 (1.09) percent injected dose per gram tissue
same,"Biodistribution of radioactivity, Spleen",[1]; 1 h post-injection,8.99 (1.00) percent injected dose per gram tissue
same,"Biodistribution of radioactivity, Spleen",[1]; 3 h post-injection,4.04 (0.30) percent injected dose per gram tissue
same,"Biodistribution of radioactivity, Spleen",[1]; 24 h post-injection,2.52 (0.23) percent injected dose per gram tissue
same,"Biodistribution of radioactivity, Stomach",[1]; 10 min post-injection,1.07 (0.32) percent injected dose
same,"Biodistribution of radioactivity, Stomach",[1]; 1 h post-injection,0.73 (0.26) percent injected dose
same,"Biodistribution of radioactivity, Stomach",[1]; 3 h post-injection,0.62 (0.19) percent injected dose
same,"Biodistribution of radioactivity, Stomach",[1]; 24 h post-injection,0.49 (0.06) percent injected dose
same,"Biodistribution of radioactivity, Tumor",[1]; 10 min post-injection,7.20 (0.40) percent injected dose per gram tissue
same,"Biodistribution of radioactivity, Tumor",[1]; 1 h post-injection,5.79 (0.37) percent injected dose per gram tissue
same,"Biodistribution of radioactivity, Tumor",[1]; 3 h post-injection,6.46 (3.42) percent injected dose per gram tissue
same,"Biodistribution of radioactivity, Tumor",[1]; 24 h post-injection,6.81 (2.60) percent injected dose per gram tissue
"Oc1ccc(C2CCN(C3CCCCC3O)CC2)cc1I (single isomer, unassigned; (-)) [(−)-IV-OH, (−)-enantiomer of 4-[1-(2-hydroxycyclohexyl)piperidine-4-yl]-2-iodophenol]",Ki,sigma-2 receptor; [2],166 nM
same,Ki,sigma-1 receptor; [3],45.5 nM
COc1ccc(CCN2CCN(CCCc3ccccc3)CC2)cc1OC [SA4503],effect of co-injected ligand on brain to blood uptake ratio of (+)-[^125I]IV-OH,sigma receptors,significant decrease
same,effect of co-injected ligand on liver uptake of (+)-[^125I]IV-OH,sigma receptors,did not inhibit
same,effect of co-injected ligand on pancreas to blood uptake ratio of (+)-[^125I]IV-OH,sigma receptors,significant decrease
same,effect of co-injected ligand on tumor to blood uptake ratio of (+)-[^125I]IV-OH,sigma receptors,significant decrease
(+)-Vesamicol [reference compound],Ki,sigma-2 receptor; [2],159 nM
